The test system of one assay is 6-OHDA mouse model. The experiment in a line: 6-OHDA mouse model, number of DA (TH+) neurons in the substantia nigra pars compacta. Type of assay: in vivo, mice. As to conditions: 15 mg/kg iv one day before 6-OHDA icv injection. The procedure:
Animals were treated in accordance with the Guide for the Care and Use of Laboratory Animals (National Research Council, 1996), with the European Directive 2010/63/EU, and the guidelines of the local institutional animal care and use committee. For all studies, 8 to 10 weeks-old male C57B1/6 mice (Janvier, France) were used. They were maintained on a 12:12 hours light/dark cycle with lights on at 8 a.m. The room temperature was kept at 20° C., with free access to standard diet and tap water.
Two in vivo mouse models were used: the 6-OHDA mouse model and the MPTP mouse model. For the 6-OHDA mouse model, the intoxication protocol was based on the unilateral stereotaxic intrastriatal injection of 6-OHDA in the right striatum. Intracerebral or intravenous injections of treatments were made either the day before the surgical stereotaxic procedure, concomitantly with 6-OHDA during the surgical stereotaxic procedure, or two days after 6-OHDA injection. Animals were sacrificed 8 days after the surgical stereotaxic procedure.
For unilateral 6-OHDA mouse model, animals were anesthetized using Chloral hydrate (400 mg/kg, i.p.) and placed into a stereotactic frame adapted to mice. The injection was performed using a Hamilton syringe at the following coordinates: AP: + […] (corresponding to the atlas of Franklin and Paxinos, 1997). […]

Assay [1] relates to dopaminergic (TH^+) neurons in midbrain cultures. The experiment in a line: MPP+ intoxication model: DA (TH+) cell survival in midbrain cultures. Type of assay: cell-based, Wistar rat. As to conditions: MPP^+ in vitro model; antibodies 1 µg/mL, genistein 10 nM, vacuolin-1 10 µM, endosidin2 40 µM. How it is done: Animals were treated in accordance with the Guide for the Care and Use of Laboratory Animals (National Research Council, 1996), European Directive 86/609, and the guidelines of the local institutional animal care and use committee. Cultures were prepared from the ventral mesencephalon of gestational age 15.5 Wistar rat embryos (Janvier Breeding Center, Le Genest St Isle, France). Dissociated cells in suspension obtained by mechanical trituration of midbrain tissue pieces were seeded at a density of 1.2-1.5×10^5 cells/cm^2 onto tissue culture supports precoated with 1 mg/mL polyethylenimine diluted in borate buffer pH 8.3 as described (Michel et al., 1997. J Neurochem. 69(4):1499-507). The cultures were then maintained in N5 medium supplemented with 5 mM glucose, 5 % horse serum, and 0.5 % fetal calf serum, except for the first 3 DIV, when the concentration of fetal calf serum was 2.5% to favor initial maturation of the cultures (Guerreiro et al., 2008. Mol Pharmacol. 74(4):980-9). They were fed daily by replacing 70% of the medium. Routinely, mesencephalic cultures were established on Nunc 24-well culture plates (Thermofischer Scientific, Rochester, NY). Note that these cultures contain tyrosine hydroxylase (TH)^+ neurons that were exclusively dopaminergic (Traver et al., 2006. Mol Pharmacol. 70(1):30-40). TH^+ neurons represented approximately 1-2% of the total number of neuronal cells present in these cultures. The evaluation of the survival of DA neurons was performed by counting cells immunopositive for TH as described (Toulorge et al., 2011. Faseb J. 25(8):2563-73).
Treatments with MPP^+ were performed in cultures where the spontaneous death process was prevented by long-term exposure to depolarizing concentrations of K^+ (30 mM), in the presence of the glutamate receptor antagonist MK801 (5 µM) to prevent unwanted excitotoxic insults as described previously (Douhou et al., 2001. J Neurochem. 78(1):163-74). Treatments with MPP^+ and potential neuroprotective molecules were carried out between 5 and 7 DIV.
The cultures were fixed for 12 min using 4 % formaldehyde in Dulbecco’s phosphate-buffered saline (PBS), then washed twice with PBS before an incubation step at 4° C. for 24 hours with the following antibodies. A monoclonal anti-TH antibody diluted 1/5000 (ImmunoStar, Inc., Hudson, WI) was used to assess the survival of DA neurons. Antibody was diluted in PBS containing 0.2 % Triton X-100. Detection of the primary antibodies was performed with an Alexa Fluor-488 conjugate of an anti-mouse IgG antibody.
For this purpose, spontaneously occurring DA cell death was prevented by a treatment combining depolarizing concentrations of K^+ (30 mM) and MK801 (5 µM), a glutamate receptor antagonist used to prevent unwanted excitotoxic insult. The cultures were then exposed to 3 µM MPP^+ between 5 and 7 days in vitro (DIV) to achieve a loss of approximately 50% of DA neurons.

Assay [2] relates to human Daudi cells. Type of assay: cell-based. As to conditions: glucose-deprived cells, 1 hour treatment (1 µM per figure legends; 10 µg/mL per method), 2-NBDG 500 µM 30 minutes. How it is done:
Human Daudi cells cultured in 75 cm^2 flask were centrifuged ( 300 g, 3 minutes), resuspended in warmed PBS supplemented with 10 % goat serum and seeded in 96-well microplate ( 100 µL, 2 × 10^6 cells/mL) in order to deprive cells from glucose. Cells were treated with test treatments (10 µg/mL) for 1 hour (37° C.). Cells were then incubated with 500 µM of the fluorescent and non-metabolizable glucose analog 2-NBDG ((2R,3R,4S,5R)-3,4,5,6-tetrahydroxy-2-[(7-nitro-2,1,3-benzoxadiazol-4-yl)amino]hexanal; Thermo Fischer) for 30 minutes at 37° C., and washed 4 times with PBS containing 10 % of goat serum. Images were acquired using a Zeiss microscope (20 X) and the relative fluorescence intensity of 30 cells was determined using Fiji.
To determine the effect of test compounds on glucose uptake, we developed a cellular model based on the use of human Daudi cells, a cell line known to strongly express CD38.
Human Daudi cells were plated in culture medium deprived of glucose and exposed to test treatments (peptides of Table 6) for 1 hour and then incubated with the non-metabolizable, fluorescent glucose 2-NBDG. After 30 minutes of incubation, cells were washed and imaged using a microscope. Fluorescence levels were determined using Fiji.

Assay [3] relates to human Daudi cells. Type of assay: cell-based.
A further assay deals with DSS mouse model. Kind of assay: DSS-induced colitis mouse model, colon length. The class given is in vivo, mice. How it is done: Experimental colitis was induced in mice by giving drinking water ad libitum containing 3 % (w/v) DSS for 5 days, while control mice received tap water only. Test compounds were intravenously administered (15 mg/kg) when DSS treatment began. Mice were sacrificed 9 days after the beginning of DSS treatment.
Administration of DSS causes human ulcerative colitis-like pathologies due to its toxicity to colonic epithelial cells, which results in compromised mucosal barrier function. Clinical observations similar to human pathologies, such as weight loss, diarrhea and occult blood in stool, are commonly observed in the DSS model. Moreover, diminution of the colon’s length is characteristic of this model.
Experimental colitis was induced in mice by giving drinking water ad libitum containing 3% (w/v) DSS for 5 days, while control mice received tap water only. Test compounds (SEQ ID NO: 6 and SEQ ID NO: 10) were subcutaneously administered everyday (300 µg/kg) starting when DSS treatment began. Mice were sacrificed 9 days after the beginning of DSS treatment.

pEC50: −log10 of the molar value. Like-named read-outs stand apart in the source and are kept apart here. Bridge positions count the residues as written; N and C are the ends. Ends that are not written are not given here. Peptide text beside a SMILES is read from it.

As to Daratumumab, the “neuroprotective effect on DA neurons” value in the assay on 6-OHDA mouse model is listed as “failed to demonstrate neuroprotective activity”.

`Ic1cccc(/C=N/Nc2nc(N3CCOCC3)nc(N(c3ccccc3)c3ccccc3)n2)c1` [vacuolin-1]: in assay [1], the “effect on the neuroprotective effect of agonistic anti-CD38 antibody clone HB7 (1 µg/mL)” value is listed as “antagonized” and the “effect on the neuroprotective effect of sCD31 (1 µg/mL)” value (shortened to “effect … of sCD31 (1 µg/mL)”) is “antagonized”.

On to `O=c1c(-c2ccc(O)cc2)coc2cc(O)cc(O)c12` [genistein], for which, in assay [1], the “effect on the neuroprotective effect of agonistic anti-CD38 antibody clone HB7 (1 µg/mL)” value is recorded as “antagonized” and the “effect … of sCD31 (1 µg/mL)” value is reported as “antagonized”.

One may read the pEC50 as the EC50 on a negative log10 scale, so that one unit is a factor of ten. Consider “human sCD31: soluble form of human CD31, amino acid residues 35 to 493 of SEQ ID NO: 1”, for which, in the assay on human Daudi cells [2], the “glucose uptake (2-NBDG fluorescence)” value is “increased glucose uptake to similar levels to that observed in the presence of insulin”. The pEC50 with human Daudi cells [3] (dose response, 2-NBDG fluorescence, read-out: EC50 on glucose uptake) is roughly 8.30.

For the molecule `COc1cc(/C=N/NC(=O)c2cccc(F)c2)cc(I)c1O` [endosidin2], in assay [1], the “effect on the neuroprotective effect of agonistic anti-CD38 antibody clone HB7 (1 µg/mL)” value is reported as “antagonized” and the “effect … of sCD31 (1 µg/mL)” value is “antagonized”.

“FELIVFN (Scramble peptide) [SEQ ID NO: 285, scramble peptide containing the same amino acid residues as NFVILEF in a different order]”: the “glucose uptake (2-NBDG fluorescence)” value with human Daudi cells [2] was “not able to increase glucose uptake”.

On to NFVALEFP [SEQ ID NO: 296], for which the “glucose uptake (2-NBDG fluorescence)” value with human Daudi cells [2] is reported as “slightly decreased the activity of the peptide, although it remained overall active”.

Turning to NFVIFEFP [SEQ ID NO: 317], the “glucose uptake (2-NBDG fluorescence)” value with human Daudi cells [2] was “increased glucose uptake, even more efficiently than SEQ ID NO: 297”.

Turning to FVILEFP [SEQ ID NO: 292], in the assay with human Daudi cells [2], the “glucose uptake (2-NBDG fluorescence)” value is recorded as “failed to reproduce the effect of sCD31”.

SFVILEFP [SEQ ID NO: 302]: the “glucose uptake (2-NBDG fluorescence)” value with human Daudi cells [2] is “still increase glucose uptake, although to a lesser extent”.

In the case of QFVILEFP [SEQ ID NO: 301], the “glucose uptake (2-NBDG fluorescence)” value with human Daudi cells [2] was “still increase glucose uptake”.

As for NSRDQNFVILEFPVE [SEQ ID NO: 6], the colon length entry in the assay with DSS mouse model (300 µg/kg s.c. daily from start of DSS, 3% DSS 5 days, sacrifice day 9) is listed as “statistically significant improvement in colon length”. Moreover, the “potency on colon length compared with SEQ ID NO: 10” value in the assay on DSS mouse model (same dosing regimen, 300 µg/kg s.c. daily) is given as “less potent than SEQ ID NO: 10”. In addition, the pEC50 with human Daudi cells [3] (1 h) is roughly 7.89.

As for NFVIDEFP [SEQ ID NO: 319], the “glucose uptake (2-NBDG fluorescence)” value with human Daudi cells [2] is on record as “impact the glucose uptake-increasing activity of the peptide”.

For NSMLIEFT [SEQ ID NO: 320], the “glucose uptake (2-NBDG fluorescence)” value with human Daudi cells [2] is “still able to increase glucose uptake”.

`CC[C@H](C)[C@@H]1NC(=O)[C@H](C(C)C)NC(=O)[C@H](Cc2ccccc2)NC(=O)[C@H](CC(N)=O)NC(=O)[C@H](CCC(N)=O)NC(=O)[C@H](CC(=O)O)NC(=O)[C@H](CCCNC(=N)N)NC(=O)[C@@H](N)CSSC[C@@H](C(=O)O)NC(=O)[C@H](CCC(N)=O)NC(=O)[C@H](CCC(=O)O)NC(=O)[C@H](CCC(=O)O)NC(=O)[C@H](C(C)C)NC(=O)[C@@H]2CCCN2C(=O)[C@H](Cc2ccccc2)NC(=O)[C@H](CCC(=O)O)NC(=O)[C@H](CC(C)C)NC1=O` [SEQ ID NO: 9] (H-CRDQNFVILEFPVEEQC-OH; disulfide 1-17 (inferred); N-terminus and C-terminus assumed) showed a negative logarithm of the EC50 (pEC50) with human Daudi cells [3] (1 h) of roughly 10.00.

The record behind these values is US20230357354A1, “CD38-BINDING CD31 PEPTIDES AND USES THEREOF” (ENCEFA, priority 2020, published 2023).
